# Experimental data reported in ChEMBL document CHEMBL1667782, “Glucose-lowering activity of novel tetrasaccharide glyceroglycolipids from the fruits of Cucurbita moschata” (2011).
# Tests used:
# Assay type in all cases: functional
# Settings in all cases: route intraperitoneal
# Mus musculus [1] = experiment: Antidiabetic activity in streptozotocin-induced C57/BL6J mouse diabetic model assessed as serum glucose level at 50 mg/kg, ip after 7 days (reference value: 22.65 +/- 6.16 mmol/L)
# Mus musculus [2] = experiment: Antidiabetic activity in streptozotocin-induced C57/BL6J mouse diabetic model assessed as serum glucose level at 50 mg/kg, ip after 21 days (reference value: 23.89 +/- 6.98 mmol/L)
# Mus musculus [3] = experiment: Antidiabetic activity in streptozotocin-induced C57/BL6J mouse diabetic model assessed as serum glucose level at 50 mg/kg, ip after 14 days (reference value: 22.17 +/- 5.63 mmol/L)
# Mus musculus [4] = experiment: Antidiabetic activity in streptozotocin-induced C57/BL6J mouse diabetic model assessed as serum glucose level at 50 mg/kg, ip after 28 days (reference value: 23.77 +/- 6.12 mmol/L)
Structure (SMILES),Activity (Mus musculus [1]),Activity (Mus musculus [2]),Activity (Mus musculus [3]),Activity (Mus musculus [4])
CC/C=C\C/C=C\C/C=C\CCCCCCCC(=O)OCC(O)CO[C@@H]1O[C@H](CO[C@@H]2O[C@H](CO[C@@H]3O[C@H](CO[C@@H]4O[C@H](CO)[C@H](O)[C@H](O)[C@H]4O)[C@H](O)[C@H](O)[C@H]3O)[C@H](O)[C@H](O)[C@H]2O)[C@H](O)[C@H](O)[C@H]1O (stereo partly drawn),20.89 mmol/L,16.36 mmol/L,18.27 mmol/L,14.61 mmol/L
CCCCC/C=C\C/C=C\CCCCCCCC(=O)OCC(O)CO[C@@H]1O[C@H](CO[C@@H]2O[C@H](CO[C@@H]3O[C@H](CO[C@@H]4O[C@H](CO)[C@H](O)[C@H](O)[C@H]4O)[C@H](O)[C@H](O)[C@H]3O)[C@H](O)[C@H](O)[C@H]2O)[C@H](O)[C@H](O)[C@H]1O (stereo partly drawn),21.47 mmol/L,18.17 mmol/L,19.09 mmol/L,15.73 mmol/L
